Assays:
Test in all cases: relative viability (nuclei count vs DMSO), 5 days (fraction); higher = more cells survive
OSI-027 + Dasatinib = compound: COc1cccc2cc(-c3nc([C@H]4CC[C@H](C(=O)O)CC4)n4ncnc(N)c34)[nH]c12 [OSI-027] + Cc1nc(Nc2ncc(C(=O)Nc3c(C)cccc3Cl)s2)cc(N2CCN(CCO)CC2)n1 [Dasatinib] (partner 0.075 µM)
How it was run: (§1)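 Five library-drug doses in √10 steps were combined with a fixed anchor-drug dose, or a single drug was given alone, by pin tool to lung cancer cell lines in 1536-well plates the day after seeding. Nuclei were stained and counted after 5 days. Relative viability is the nuclei count in treated wells over that in vehicle wells, taken as the median of duplicate plates.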

OSI-027 + Decitabine = compound: COc1cccc2cc(-c3nc([C@H]4CC[C@H](C(=O)O)CC4)n4ncnc(N)c34)[nH]c12 [OSI-027] + Nc1ncn([C@H]2C[C@H](O)[C@@H](CO)O2)c(=O)n1 [Decitabine] (partner 2 µM)
How it was run: as §1

Alpelisib + AZD7762 = compound: Cc1nc(NC(=O)N2CCC[C@H]2C(N)=O)sc1-c1ccnc(C(C)(C)C(F)(F)F)c1 [Alpelisib] + NC(=O)Nc1cc(-c2cccc(F)c2)sc1C(=O)N[C@H]1CCCNC1 [AZD7762] (partner 0.2 µM)
How it was run: as §1

Vemurafenib + Vorinostat = compound: CCCS(=O)(=O)Nc1ccc(F)c(C(=O)c2c[nH]c3ncc(-c4ccc(Cl)cc4)cc23)c1F [Vemurafenib] + O=C(CCCCCCC(=O)Nc1ccccc1)NO [Vorinostat] (partner 1 µM)
How it was run: as §1

| Cell Line | relative viability (OSI-027 + Dasatinib; first compound 0.01 µM) | relative viability (OSI-027 + Dasatinib; first compound 0.03162 µM) | relative viability (OSI-027 + Dasatinib; first compound 0.1 µM) | relative viability (OSI-027 + Dasatinib; first compound 0.3162 µM) | relative viability (OSI-027 + Dasatinib; first compound 1 µM) | relative viability (OSI-027 + Decitabine; first compound 0.01 µM) | relative viability (OSI-027 + Decitabine; first compound 0.03162 µM) | relative viability (OSI-027 + Decitabine; first compound 0.1 µM) | relative viability (OSI-027 + Decitabine; first compound 0.3162 µM) | relative viability (OSI-027 + Decitabine; first compound 1 µM) | relative viability (Alpelisib + AZD7762; first compound 0.04 µM) | relative viability (Alpelisib + AZD7762; first compound 0.1265 µM) | relative viability (Alpelisib + AZD7762; first compound 0.4 µM) | relative viability (Alpelisib + AZD7762; first compound 1.265 µM) | relative viability (Alpelisib + AZD7762; first compound 4 µM) | relative viability (Vemurafenib + Vorinostat; first compound 0.03162 µM) | relative viability (Vemurafenib + Vorinostat; first compound 0.1 µM) | relative viability (Vemurafenib + Vorinostat; first compound 0.3162 µM) | relative viability (Vemurafenib + Vorinostat; first compound 1 µM) |
| --- | --- | --- | --- | --- | --- | --- | --- | --- | --- | --- | --- | --- | --- | --- | --- | --- | --- | --- | --- |
| BEN | 0.304 | 0.567 | 0.273 | 0.218 | 0.169 | 0.609 | 0.707 | 0.596 | 0.513 | 0.483 | 0.67 | 0.59 | 0.756 | 0.825 | 0.549 | 0.494 | 0.592 | 0.402 | 0.503 |
| ChaGo-K-1 | 0.515 | 0.618 | 0.5 | 0.549 | 0.474 | 0.518 | 0.526 | 0.497 | 0.522 | 0.45 | 0.865 | 0.909 | 0.875 | 0.791 | 0.672 | 0.743 | 0.762 | 0.605 | 0.762 |
| EKVX | 0.516 | 0.472 | 0.515 | 0.429 | 0.316 | 0.643 | 0.329 | 0.363 | 0.284 | 0.28 | 0.868 | 0.662 | 0.675 | 0.636 | 0.533 | 0.712 | – | 0.745 | 0.936 |
| EMC-BAC-2 | 0.296 | 0.311 | 0.308 | 0.249 | 0.225 | 0.97 | 0.992 | 0.934 | 0.827 | 0.588 | 1.1 | 1.05 | 0.946 | 0.832 | 0.581 | 0.361 | 0.411 | – | 0.415 |
| EPLC-272H | 0.336 | 0.314 | 0.36 | 0.268 | 0.102 | 0.324 | 0.321 | 0.344 | 0.298 | 0.256 | 0.237 | 0.251 | 0.24 | 0.271 | 0.186 | 0.553 | 0.4 | 0.528 | 0.543 |
| H3255 | 0.291 | 0.377 | 0.388 | 0.292 | 0.217 | 0.736 | 0.676 | 0.558 | 0.513 | 0.42 | 0.86 | 0.88 | 1.32 | 0.799 | 0.864 | 0.758 | – | 0.709 | 0.638 |
| HARA | 0.227 | 0.247 | 0.25 | 0.253 | 0.209 | 0.529 | 0.432 | 0.558 | 0.422 | 0.346 | 0.364 | 0.334 | 0.398 | 0.249 | 0.442 | 0.424 | 0.517 | 0.399 | 0.54 |
| HCC-15 | 0.551 | 0.656 | 0.624 | 0.486 | 0.366 | 0.571 | 0.642 | 0.57 | 0.537 | 0.372 | 1.23 | 1.35 | 1.32 | 1.05 | 0.908 | 0.775 | 0.8 | 0.899 | 0.805 |

From the supplement of paper PMC10307832
